Columns and labels:
Experiment in all cases: relative viability (nuclei count vs DMSO), 5 days (fraction); higher = more cells survive
Bromopyruvate + Olaparib = compound: C(C(=O)C(=O)O)Br [Bromopyruvate] + O=C(c1cc(Cc2n[nH]c(=O)c3ccccc23)ccc1F)N1CCN(C(=O)C2CC2)CC1 [Olaparib] (partner 8 µM)
How it was run: (§1)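 Relative viability divides the nuclei count in treated wells by that in vehicle wells. Lung cancer cell lines were seeded in 1536-well plates, dosed by pin tool the next day, and fixed and stained after 5 days in one step with final 0.05% Triton X-100, 1% formaldehyde and 1 ug/ml Hoechst. Dosing was a single drug or a fixed anchor-drug dose plus five library-drug doses (not always all listed) in √10 steps, and values are medians of duplicate plates imaged at 4×.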

[1] = compound: CC(O)(CS(=O)(=O)c1ccc(F)cc1)C(=O)Nc1ccc(C#N)c(C(F)(F)F)c1 [Bicalutamide] + O=C(CCCCCCC(=O)Nc1ccccc1)NO [Vorinostat] (partner 1 µM)
How it was run: as §1

[2] = compound: C(C(=O)C(=O)O)Br [Bromopyruvate] + Nc1nc2[nH]cc(CCc3ccc(C(=O)N[C@@H](CCC(=O)O)C(=O)O)cc3)c2c(=O)[nH]1 [Pemetrexed] (partner 0.2 µM)
How it was run: as §1

[3] = compound: CC(O)(CS(=O)(=O)c1ccc(F)cc1)C(=O)Nc1ccc(C#N)c(C(F)(F)F)c1 [Bicalutamide] + CS(=O)(=O)N1CCN(Cc2cc3nc(-c4cccc5[nH]ncc45)nc(N4CCOCC4)c3s2)CC1 [Pictilisib] (partner 1 µM)
How it was run: as §1

For HCC-827, the relative viability (Bromopyruvate + Olaparib; first compound 1 µM) was 0.757, the relative viability (Bromopyruvate + Olaparib; first compound 3.162 µM) was 0.706 and the relative viability (Bromopyruvate + Olaparib; first compound 10 µM) was 0.732. For the same cell line, the relative viability (Bromopyruvate + Olaparib; first compound 31.62 µM) was 0.616, the relative viability (Bromopyruvate + Olaparib; first compound 100 µM) was 0.588 and the relative viability ([1]; first compound 0.08 µM) was 0.921. For the same cell line, the relative viability ([1]; first compound 0.253 µM) was 0.639, the relative viability ([1]; first compound 0.8 µM) was 1.15 and the relative viability ([1]; first compound 2.53 µM) was 0.815. It also gave a relative viability ([2]; first compound 1 µM) of 0.26, a relative viability ([2]; first compound 3.162 µM) of 0.247 and a relative viability ([2]; first compound 10 µM) of 0.26. For the same cell line, the relative viability ([2]; first compound 31.62 µM) was 0.262, the relative viability ([2]; first compound 100 µM) was 0.266 and the relative viability ([3]; first compound 0.08 µM) was 1.01. For the same cell line, the relative viability ([3]; first compound 0.253 µM) was 0.85, the relative viability ([3]; first compound 0.8 µM) was 1.1 and the relative viability ([3]; first compound 2.53 µM) was 1.04.

HOP-62 showed a relative viability (Bromopyruvate + Olaparib; first compound 1 µM) of 0.373, a relative viability (Bromopyruvate + Olaparib; first compound 3.162 µM) of 0.432 and a relative viability (Bromopyruvate + Olaparib; first compound 10 µM) of 0.798. The relative viability (Bromopyruvate + Olaparib; first compound 31.62 µM) was 0.525, the relative viability (Bromopyruvate + Olaparib; first compound 100 µM) was 0.157 and the relative viability ([1]; first compound 0.08 µM) was 0.783. It also gave a relative viability ([1]; first compound 0.253 µM) of 0.606, a relative viability ([1]; first compound 0.8 µM) of 0.689 and a relative viability ([1]; first compound 2.53 µM) of 0.52. It also gave a relative viability ([2]; first compound 1 µM) of 0.302, a relative viability ([2]; first compound 3.162 µM) of 0.321 and a relative viability ([2]; first compound 10 µM) of 0.326. The relative viability ([2]; first compound 31.62 µM) was 0.356, the relative viability ([2]; first compound 100 µM) was 0.207 and the relative viability ([3]; first compound 0.08 µM) was 0.971. For the same cell line, the relative viability ([3]; first compound 0.253 µM) was 0.806, the relative viability ([3]; first compound 0.8 µM) was 0.998 and the relative viability ([3]; first compound 2.53 µM) was 0.614.

With IA-LM the relative viability (Bromopyruvate + Olaparib; first compound 1 µM) was 0.839, the relative viability (Bromopyruvate + Olaparib; first compound 3.162 µM) was 0.857 and the relative viability (Bromopyruvate + Olaparib; first compound 10 µM) was 0.855. For the same cell line, the relative viability (Bromopyruvate + Olaparib; first compound 31.62 µM) was 0.98, the relative viability (Bromopyruvate + Olaparib; first compound 100 µM) was 0.941 and the relative viability ([1]; first compound 0.08 µM) was 0.985. For the same cell line, the relative viability ([1]; first compound 0.253 µM) was 0.803, the relative viability ([1]; first compound 0.8 µM) was 1.16 and the relative viability ([1]; first compound 2.53 µM) was 0.892. The relative viability ([3]; first compound 0.08 µM) was 0.368, the relative viability ([3]; first compound 0.253 µM) was 0.389 and the relative viability ([3]; first compound 0.8 µM) was 0.422. For the same cell line, the relative viability ([3]; first compound 2.53 µM) was 0.507.

With LC-2-ad the relative viability (Bromopyruvate + Olaparib; first compound 1 µM) was 0.816, the relative viability (Bromopyruvate + Olaparib; first compound 3.162 µM) was 0.665 and the relative viability (Bromopyruvate + Olaparib; first compound 10 µM) was 0.352. For the same cell line, the relative viability (Bromopyruvate + Olaparib; first compound 31.62 µM) was 0.666, the relative viability (Bromopyruvate + Olaparib; first compound 100 µM) was 0.664 and the relative viability ([1]; first compound 0.08 µM) was 0.767. It also gave a relative viability ([1]; first compound 0.253 µM) of 0.679, a relative viability ([1]; first compound 0.8 µM) of 0.67 and a relative viability ([1]; first compound 2.53 µM) of 0.556. It also gave a relative viability ([2]; first compound 1 µM) of 0.294, a relative viability ([2]; first compound 3.162 µM) of 0.287 and a relative viability ([2]; first compound 10 µM) of 0.269. It also gave a relative viability ([2]; first compound 31.62 µM) of 0.298, a relative viability ([2]; first compound 100 µM) of 0.298 and a relative viability ([3]; first compound 0.08 µM) of 0.536. For the same cell line, the relative viability ([3]; first compound 0.253 µM) was 0.459, the relative viability ([3]; first compound 0.8 µM) was 0.637 and the relative viability ([3]; first compound 2.53 µM) was 0.502.

LCLC-97TM1 was tested, and the relative viability (Bromopyruvate + Olaparib; first compound 1 µM) was 0.467, the relative viability (Bromopyruvate + Olaparib; first compound 3.162 µM) was 0.458 and the relative viability (Bromopyruvate + Olaparib; first compound 10 µM) was 0.481. For the same cell line, the relative viability (Bromopyruvate + Olaparib; first compound 31.62 µM) was 0.352, the relative viability (Bromopyruvate + Olaparib; first compound 100 µM) was 0.212 and the relative viability ([1]; first compound 0.08 µM) was 0.728. For the same cell line, the relative viability ([1]; first compound 0.253 µM) was 0.644, the relative viability ([1]; first compound 0.8 µM) was 0.972 and the relative viability ([1]; first compound 2.53 µM) was 0.54. The relative viability ([2]; first compound 1 µM) was 0.182, the relative viability ([2]; first compound 3.162 µM) was 0.152 and the relative viability ([2]; first compound 10 µM) was 0.187. For the same cell line, the relative viability ([2]; first compound 31.62 µM) was 0.164, the relative viability ([2]; first compound 100 µM) was 0.195 and the relative viability ([3]; first compound 0.08 µM) was 0.256. For the same cell line, the relative viability ([3]; first compound 0.253 µM) was 0.206, the relative viability ([3]; first compound 0.8 µM) was 0.228 and the relative viability ([3]; first compound 2.53 µM) was 0.199.

With LCLC-103H the relative viability (Bromopyruvate + Olaparib; first compound 1 µM) was 0.744, the relative viability (Bromopyruvate + Olaparib; first compound 3.162 µM) was 0.773 and the relative viability (Bromopyruvate + Olaparib; first compound 10 µM) was 0.752. It also gave a relative viability (Bromopyruvate + Olaparib; first compound 31.62 µM) of 0.848, a relative viability (Bromopyruvate + Olaparib; first compound 100 µM) of 0.809 and a relative viability ([1]; first compound 0.08 µM) of 0.791. The relative viability ([1]; first compound 0.253 µM) was 0.679, the relative viability ([1]; first compound 0.8 µM) was 0.914 and the relative viability ([1]; first compound 2.53 µM) was 0.744. The relative viability ([2]; first compound 1 µM) was 0.468, the relative viability ([2]; first compound 3.162 µM) was 0.465 and the relative viability ([2]; first compound 10 µM) was 0.472. It also gave a relative viability ([2]; first compound 31.62 µM) of 0.446, a relative viability ([2]; first compound 100 µM) of 0.48 and a relative viability ([3]; first compound 0.08 µM) of 0.692. The relative viability ([3]; first compound 0.253 µM) was 0.444, the relative viability ([3]; first compound 0.8 µM) was 0.673 and the relative viability ([3]; first compound 2.53 µM) was 0.544.

With LK-2 the relative viability (Bromopyruvate + Olaparib; first compound 1 µM) was 0.827, the relative viability (Bromopyruvate + Olaparib; first compound 3.162 µM) was 0.816 and the relative viability (Bromopyruvate + Olaparib; first compound 10 µM) was 0.815. It also gave a relative viability (Bromopyruvate + Olaparib; first compound 31.62 µM) of 0.591, a relative viability (Bromopyruvate + Olaparib; first compound 100 µM) of 0.717 and a relative viability ([1]; first compound 0.08 µM) of 0.346. It also gave a relative viability ([1]; first compound 0.253 µM) of 0.339, a relative viability ([1]; first compound 0.8 µM) of 0.354 and a relative viability ([1]; first compound 2.53 µM) of 0.311. It also gave a relative viability ([2]; first compound 1 µM) of 0.346, a relative viability ([2]; first compound 3.162 µM) of 0.23 and a relative viability ([2]; first compound 10 µM) of 0.312. It also gave a relative viability ([2]; first compound 31.62 µM) of 0.237, a relative viability ([2]; first compound 100 µM) of 0.261 and a relative viability ([3]; first compound 0.08 µM) of 0.591. It also gave a relative viability ([3]; first compound 0.253 µM) of 0.442, a relative viability ([3]; first compound 0.8 µM) of 0.754 and a relative viability ([3]; first compound 2.53 µM) of 0.667.

LOU-NH91 was tested, and the relative viability (Bromopyruvate + Olaparib; first compound 1 µM) was 1, the relative viability (Bromopyruvate + Olaparib; first compound 3.162 µM) was 0.902 and the relative viability (Bromopyruvate + Olaparib; first compound 10 µM) was 0.974. The relative viability (Bromopyruvate + Olaparib; first compound 31.62 µM) was 0.95, the relative viability (Bromopyruvate + Olaparib; first compound 100 µM) was 1.01 and the relative viability ([1]; first compound 0.08 µM) was 0.985. The relative viability ([1]; first compound 0.253 µM) was 0.723, the relative viability ([1]; first compound 0.8 µM) was 0.971 and the relative viability ([1]; first compound 2.53 µM) was 0.893. For the same cell line, the relative viability ([2]; first compound 1 µM) was 0.402, the relative viability ([2]; first compound 3.162 µM) was 0.371 and the relative viability ([2]; first compound 10 µM) was 0.366. For the same cell line, the relative viability ([2]; first compound 31.62 µM) was 0.402, the relative viability ([2]; first compound 100 µM) was 0.443 and the relative viability ([3]; first compound 0.08 µM) was 0.537. It also gave a relative viability ([3]; first compound 0.253 µM) of 0.471, a relative viability ([3]; first compound 0.8 µM) of 0.549 and a relative viability ([3]; first compound 2.53 µM) of 0.491.

LU99A was tested, and the relative viability (Bromopyruvate + Olaparib; first compound 1 µM) was 0.267, the relative viability (Bromopyruvate + Olaparib; first compound 3.162 µM) was 0.237 and the relative viability (Bromopyruvate + Olaparib; first compound 10 µM) was 0.241. For the same cell line, the relative viability (Bromopyruvate + Olaparib; first compound 31.62 µM) was 0.26, the relative viability (Bromopyruvate + Olaparib; first compound 100 µM) was 0.134 and the relative viability ([1]; first compound 0.08 µM) was 0.461. The relative viability ([1]; first compound 0.253 µM) was 0.436, the relative viability ([1]; first compound 0.8 µM) was 0.626 and the relative viability ([1]; first compound 2.53 µM) was 0.43. It also gave a relative viability ([2]; first compound 1 µM) of 0.178, a relative viability ([2]; first compound 3.162 µM) of 0.21 and a relative viability ([2]; first compound 10 µM) of 0.169. It also gave a relative viability ([2]; first compound 31.62 µM) of 0.202, a relative viability ([2]; first compound 100 µM) of 0.165 and a relative viability ([3]; first compound 0.08 µM) of 0.295. For the same cell line, the relative viability ([3]; first compound 0.253 µM) was 0.321, the relative viability ([3]; first compound 0.8 µM) was 0.364 and the relative viability ([3]; first compound 2.53 µM) was 0.209.

Source: the supplement of paper PMC10307832
